The source of these data is publication PMC10605077, “In Vitro and In Silico Antiviral Activity of Di-Halogenated Compounds Derived from L-Tyrosine against Human Immunodeficiency Virus 1 (HIV-1)” (Current Issues in Molecular Biology, 2023).

The nature of data set [1]: MTT cytotoxicity assay. The data set is classed as cell-based. Particulars: human; TZM-bl cells, MTT, 48 h. The procedure: The in vitro cytotoxic effect of the di-halogenated compounds on TZM-bl cells was determined with the MTT (3-(4,5-Dimethylthiazol-2-yl)-2,5-diphenyltetrazolium bromide) assay (Sigma-Aldrich, St. Louis, MO, USA). For this purpose, 1.2 × 10^5 cells/well were seeded in 96-well plates, which were incubated at 37 °C and 5% CO2 for 24 h. DMEM was used as a negative control and serial two-fold dilutions of the compounds were performed at 9.37 to 300 μM in DMEM supplemented with 5% FBS. A total of 100 μL/well of each dilution was added and incubated for 48 h. Subsequently, the cells were washed 2 times with 1X PBS, and 30 μL of MTT solution (2 mg/mL) was added and incubated for 2 h at 37 °C, in a light-protected culture. Then, 100 µL of DMSO was added to dissolve the formazan crystals, placed in shaking for 15 min, and absorbance reading was performed at 570 nm, using the Microplate Spectrophotometer (Thermo Scientific™ Multiskan™ GO, Waltham, MA, USA). Two independent experiments evaluated each experimental condition in quadruplicate (n = 8). The percentage of viability was calculated concerning the absorbance of the controls without a compound (100% viability). The 50% cytotoxic concentration was defined as the concentration of each compound that can reduce cell viability to 50% of the untreated cell control. CC50 was calculated and analyzed with GraphPad Prism version 8.0.1 (GraphPad Software, Inc., San Diego, CA, USA).

The test system of data set [2] is HIV-GFP-VSV-G reporter virus. Nature of the data set: microbe, parasite or virus in culture. Particulars: Human immunodeficiency virus 1, TZM-bl, read-out: percentage inhibition of HIV-GFP-VSV-G replication. The data set is classed as cell-based, HIV-1.
In data set [3] the test system is HIV-1 BaL. Nature of the data set: Anti-HIV activity in PBMC, p24 ELISA of supernatant. The data set is classed as cell-based. Particulars: 150 μM, supernatant, 7 days. In general terms: ELISA stands for enzyme-linked immunosorbent assay.
Data set [4] in a line: Viability assay of PBMC, flow cytometry with viability dye. Particulars: human, PBMC stimulated with PHA and IL-2; all concentrations tested (18.75 μM up to 150 μM), 7 days; read-out: viability level on PBMCs. In kind it is cell-based, Human. The procedure: PBMCs were thawed and let in the culture in RPMI with 10% fetal bovine serum (FBS) (Gibco, Grand Island, NY, USA) for 24 h before each experiment. Cells were stimulated for 48 h with 8 μg/mL of Phytohemagglutinin-PHA (Sigma-Aldrich, St. Louis, MO, USA) and 50 UI/mL of IL-2 (Peprotech, Rocky Hill, CT, USA). In the presence of various concentrations of di-halogenated compounds derived from L-Tyrosine, 2 × 10^5 cells per well were treated and resuspended in 200 µL of fresh medium with 20 UI/mL of IL-2 and incubated in 96-well culture plates for 7 days. After 7 days post-treatment, cell viability was determined using flow cytometry. Briefly, cells were stained with fixable viability dye eFluor 506 (eBioscience, Leicestershire, UK) as detailed in the manufacturer’s protocol for 30 min in the dark. Later, cells were washed and resuspended in PBS, and the percentage of viable cells was measured instead in the LS Fortessa cytometer (BD Biosciences, Franklin Lakes, NJ, USA). Data were analyzed using FlowJo version 10.5.3 (FlowJo, LLC, Ashland, OR, USA).

Data set [5] deals with HIV-1 BaL (R5). Nature of the data set: Anti-HIV activity in infected TZM-bl cells (luciferase), pre- and post-infection treatment. The data set is classed as cell-based, Human Immunodeficiency Virus Type 1 (HIV-1). The procedure: (§1) TZM-bl cells were plated in a flat-bottom 96-well plate (Corning Inc., Corning, New York, NY, USA) at the concentration of 1.2 × 10^5 cells/well and incubated for 24 h at 37 °C before the addition or not of each compound at non-cytotoxic concentrations (pre-infection treatment). Then, 1 h later the treatment was removed, and the infection was performed by adding 10 ng/mL of HIV-1IIIB p24 (X4) or 2 ng/mL of HIV-1 BaL (R5). After 3 h, the virus was removed and washed, and the compound dilutions were added again (post-infection treatment). Additionally, three wells were left for the negative control (cells without treatment or infection), the positive control of infection (cells infected with the virus without treatment), and the positive control of inhibition (AZT). Antiviral activity was quantified 48 h after treatment by measuring luciferase activity, which is directly proportional to the number of infectious virus particles in the sample [23]. The luciferase activity was quantified via luminescence emitted by the cells using Bright-GloTM Luciferase Assay System (Promega Corp., Madison, WI, USA), following the manufacturer’s instructions. Briefly, 100 μL of the reagent was added to 100 μL of TZM-bl cells and incubated for at least 2 min, protected from light. Relative light units (RLUs) were measured using the multi-mode plate reader (Thermo ScientificTM VarioskanTM LUX). Each experimental condition was performed in triplicate in two independent experiments (n = 6). The percentage inhibition was calculated as follows: 100 − (RLU of treated cells − RLU of uninfected cells/RLU of infection control − RLU of uninfected cells) × 100.

The subject of data set [6] is HIV-1IIIB (X4). The data set is described as above. In kind it is cell-based, Human Immunodeficiency Virus Type 1 (HIV-1). Conditions: TZM-bl cells. The procedure: as §1

`COc1c(Cl)cc(C[C@@H](C(=O)O)N(C)C)cc1Cl` [TODC-2M]: the cytotoxic concentration (CC50) (usually the concentration that lowers cell viability or growth by half) at 48 h in data set [1] is > 300 µM. For the same compound, the inhibition (commonly the change of the read-out against control, counted positive when it falls) at 150 µM was 29% in data set [2]; > 20% in data set [3] (Human immunodeficiency virus 1, BAL, PBMC, 168 h, read-out: inhibition of HIV-1 BaL in PBMC, extracellular p24 ELISA); 61.1% in data set [5] (Human immunodeficiency virus 1, BAL, 150 µM, TZM-bl cells, read-out: Percentage inhibition of HIV-1 BaL replication); 99.6% in data set [6] (Human immunodeficiency virus 1, TZM-bl, 150 µM, read-out: Percentage inhibition of HIV-1IIIB (X4 strain) replication). In data set [3], the “inhibition of HIV-1 BaL in PBMC, extracellular p24 ELISA” value came to 21.6%. The viability (commonly the share of living cells, or the viability signal relative to a control) at 7 days in data set [4] is > 90%. For the same compound, the IC50 (in general, the midpoint of a concentration-inhibition curve) in data set [5] (Human immunodeficiency virus 1, BAL, TZM-bl, 48 h, HIV-1 BaL (R5), TZM-bl cells, luciferase) is 67.4 µM; in data set [6] (Human immunodeficiency virus 1, HIV-1IIIB (X4), luciferase, 48 h), ~39.1 µM. Besides, the inhibition at 18 µM is 38% in data set [5] (Human immunodeficiency virus 1, BAL, 18 µM, TZM-bl cells, read-out: Percentage inhibition of HIV-1 BaL replication) and -18.5% in data set [6] (Human immunodeficiency virus 1, TZM-bl, 18 µM, read-out: Percentage inhibition of HIV-1IIIB (X4 strain) replication). Also, the inhibition at 37 µM is 46.4% in data set [5] (Human immunodeficiency virus 1, BAL, 37 µM, TZM-bl cells, read-out: Percentage inhibition of HIV-1 BaL replication) and 40.6% in data set [6] (Human immunodeficiency virus 1, TZM-bl, 37 µM, read-out: Percentage inhibition of HIV-1IIIB (X4 strain) replication). The inhibition at 75 µM in data set [5] (Human immunodeficiency virus 1, BAL, 75 µM, TZM-bl cells, read-out: Percentage inhibition of HIV-1 BaL replication) worked out at 60.5%; in data set [6] (Human immunodeficiency virus 1, TZM-bl, 75 µM, read-out: Percentage inhibition of HIV-1IIIB (X4 strain) replication), 62.8%. Besides, in data set [5] (selectivity index against HIV-1 BaL (CC50 and IC50 of Table 3)), the SI is >4.45.
